As usually defined, the IC50 is the concentration at which inhibition is half-maximal. A lower IC50 goes with greater potency. As usually defined, the Kd is the equilibrium constant for the complex coming apart.

The record followed here is ChEMBL document CHEMBL6177953, “Discovery of a novel quinoxaline derivative modulator via a dual P53/TLR2 targeting strategy for the alleviation of radiation damage” (Eur J Med Chem, 2025).

For data set [1], the system named is Mus musculus. The experiment in a line: Radioprotective activity in male C57BL/6J mouse assessed as increase in cell growth at 250 to 300 mg/kg, ip pre-treated with compound for 24.25 hrs followed by irradiation at 6.5 Gy and measured on 30 day post irradiation. The note with it: dose 250-300 mg/kg, time 744.25 hrs. The data set is classed as functional, organism-based.

The nature of data set [2]: Cytotoxicity against HUVEC incubated for 24 to 96 hrs by CCK-8 assay. The data set is classed as toxicity, cell-based. The note with it: human, HUVEC cells.
Data set [3] deals with AHH-1. The experiment in a line: Cytotoxicity against human AHH-1 cells incubated for 24 to 96 hrs by CCK-8 assay. The data set is classed as functional, cell-based.
The test system of data set [4] is AHH-1. The experiment in a line: Antiradiation activity in human AHH-1 cells assessed as increase in cell viability at 2.5 to 10 micromol/L pre-treated with compound for 24 hrs followed by irradiation at 4 Gy measured after 24 hrs by CCK-8 assay. The data set is classed as functional, cell-based. The note with it: dose 2.5-10 µmol/L, time 48.0 hrs. On the technique in general: Tetrazolium dyes change colour on reduction, which living cells bring about.

Data set [5] concerns AHH-1. Description: Induction of apoptosis in human AHH-1 cells assessed as viable cells pre-treated with compound for 24 hrs followed by irradiation at 6 Gy and measured after 24 hrs by Annexin V-FITC/PI staining based Flow cytometry analysis (reference value: 83.6%). The data set is classed as functional. The note with it: time 48 hrs. A general note: A flow cytometer gives signals particle by particle.

Data set [6] relates to AHH-1. The experiment in a line: Induction of apoptosis in human AHH-1 cells assessed as late apoptotic cells pre-treated with compound for 24 hrs followed by irradiation at 6 Gy and measured after 24 hrs by Annexin V-FITC/PI staining based Flow cytometry analysis (reference value: 2.65%). The data set is classed as functional. The note with it: time 48 hrs.
The subject of data set [7] is AHH-1. The experiment in a line: Induction of apoptosis in human AHH-1 cells assessed as necrotic cells pre-treated with compound for 24 hrs followed by irradiation at 6 Gy and measured after 24 hrs by Annexin V-FITC/PI staining based Flow cytometry analysis (reference value: 5.37%). The note with it: time 48 hrs. Format: functional.
The test system of data set [8] is Mus musculus. Description: Radioprotective activity in male C57BL/6J mouse assessed as increase in body weight at 100 to 300 mg/kg, ip pre-treated with compound for 24.25 hrs followed by irradiation at 8.5 Gy and measured on day 18 post irradiation. The data set is classed as functional, organism-based. The note with it: dose 100-300 mg/kg, time 456.25 hrs.
The subject of data set [9] is Mus musculus. The experiment in a line: Radioprotective activity in male C57BL/6J mouse assessed as survival rate at 300 mg/kg, ip pre-treated with compound for 24.25 hrs followed by irradiation at 8.5 Gy and measured for 30 days post irradiation relative to control. The data set is classed as functional. The note with it: time 744.25 hrs.
Data set [10] deals with AHH-1. Description: Induction of apoptosis in human AHH-1 cells assessed as early apoptotic cells pre-treated with compound for 24 hrs followed by irradiation at 6 Gy and measured after 24 hrs by Annexin V-FITC/PI staining based Flow cytometry analysis (reference value: 8.15%). Format: functional. The note with it: time 48 hrs.
Data set [11] concerns AHH-1. The experiment in a line: Antiradiation activity in human AHH-1 cells assessed as increase in cell viability at 2.5 to 10 micromol/L pre-treated with compound for 24 hrs followed by irradiation at 6 Gy measured after 24 hrs by CCK-8 assay. The data set is classed as functional, cell-based. The note with it: dose 2.5-10 µmol/L, time 48.0 hrs.
Data set [12] concerns AHH-1. Description: Antiradiation activity in human AHH-1 cells assessed as increase in cell viability at 2.5 to 10 micromol/L pre-treated with compound for 24 hrs followed by irradiation at 8 Gy measured after 24 hrs by CCK-8 assay. The data set is classed as functional, cell-based. The note with it: dose 2.5-10 µmol/L, time 48.0 hrs.
Data set [13] has as its system Mus musculus. The experiment in a line: Radioprotective activity in male C57BL/6J mouse assessed as survival rate at 250 mg/kg, ip pre-treated with compound for 24.25 hrs followed by irradiation at 8.5 Gy and measured for 30 days post irradiation relative to control. Format: functional. The note with it: time 744.25 hrs.
Data set [14] deals with AHH-1. The experiment in a line: Antiradiation activity in human AHH-1 cells assessed as increase in cell viability at 2.5 micromol/L pre-treated with compound for 24 hrs followed by irradiation at 8 Gy measured after 24 hrs by CCK-8 assay. The data set is classed as functional, cell-based. The note with it: dose 2.5 µmol/L, time 48.0 hrs.
Data set [15] relates to Mus musculus. Description: Radioprotective activity in male C57BL/6J mouse assessed as time required to increase in WBC count at 250 mg/kg, ip pre-treated with compound for 24.25 hrs followed by irradiation at 6.5 Gy and measured on 30 day post irradiation. Format: functional. The note with it: time 744.25 hrs.
Data set [16] concerns AHH-1. Description: Induction of DNA damage repair activity in 6 Gy radiation-induced human AHH-1 cells assessed as downregulation of P53 level pre-treated with compound for 24 hrs followed by irradiation by Co-immunoprecipitation analysis. Format: functional, cell-based.
Data set [17] concerns HUVEC. The experiment in a line: Antiradiation activity in human HUVEC assessed as cell viability at 5 to 20 micromol/L pre-treated with compound for 24 hrs followed by irradiation at 6 Gy measured after 96 hrs by CCK-8 assay. The note with it: dose 5-20 µmol/L, time 120.0 hrs. The data set is classed as functional, cell-based.
In data set [18] the test system is Mus musculus. The experiment in a line: Radioprotective activity in male C57BL/6J mouse assessed as attenuation of spleen atrophy at 250 mg/kg, ip pre-treated with compound for 24.25 hrs followed by irradiation at 13 Gy and measured on 3.5 day post irradiation. The data set is classed as functional, organism-based. The note with it: time 108.25 hrs.
Data set [19] deals with T1, Toll-like receptor 2 (Homo sapiens, UniProt O60603). Description: Binding affinity to TLR2 (unknown origin) by SPR analysis. The note with it: filed as modulator, dose 312.5-10000 nM. For orientation: SPR reads the build-up and loss of mass on a sensor chip optically.
T1 sequence (O60603 whole entry): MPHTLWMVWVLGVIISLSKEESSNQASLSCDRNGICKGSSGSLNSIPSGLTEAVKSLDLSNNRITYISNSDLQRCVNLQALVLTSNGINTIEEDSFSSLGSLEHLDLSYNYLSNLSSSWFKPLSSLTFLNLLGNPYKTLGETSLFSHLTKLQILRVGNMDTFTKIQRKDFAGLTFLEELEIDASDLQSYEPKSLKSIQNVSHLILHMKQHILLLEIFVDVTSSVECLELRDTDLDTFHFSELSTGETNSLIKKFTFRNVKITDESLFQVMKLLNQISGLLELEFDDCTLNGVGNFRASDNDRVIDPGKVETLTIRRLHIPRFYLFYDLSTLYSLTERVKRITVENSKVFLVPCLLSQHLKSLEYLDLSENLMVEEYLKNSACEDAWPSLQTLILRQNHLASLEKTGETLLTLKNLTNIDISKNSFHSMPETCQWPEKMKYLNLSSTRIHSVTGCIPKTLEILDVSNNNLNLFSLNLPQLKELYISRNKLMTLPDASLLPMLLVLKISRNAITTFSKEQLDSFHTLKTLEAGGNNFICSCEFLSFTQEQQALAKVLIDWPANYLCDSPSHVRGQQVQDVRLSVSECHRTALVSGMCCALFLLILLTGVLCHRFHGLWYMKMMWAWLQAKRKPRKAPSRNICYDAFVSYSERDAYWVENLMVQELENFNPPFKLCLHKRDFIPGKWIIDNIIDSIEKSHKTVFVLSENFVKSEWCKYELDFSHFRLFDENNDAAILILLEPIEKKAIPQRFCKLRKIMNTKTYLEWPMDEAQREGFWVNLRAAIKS
Data set [20] relates to HUVEC. The experiment in a line: Upregulation of P65 expression in HUVEC incubated for 24 hrs in presence of irradiation by Co-immunoprecipitation analysis. Format: functional, cell-based. The note with it: Homo sapiens.
Data set [21] deals with AHH-1. The experiment in a line: Radioprotective activity against 6 Gy radiation-induced DNA damage in human AHH-1 cells assessed as attenuation of gamma-H2AX expression incubated for 0.5 to 2 hrs by immunohistochemical staining based confocal fluorescence microscopic analysis. The note with it: time 0.5-2 hrs. The data set is classed as functional, cell-based.
Data set [22] has as its system HUVEC. Description: Upregulation of IL-6 secretion in HUVEC at 20 to 80 uM incubated for 24 hrs in presence of irradiation by ELISA. The note with it: Homo sapiens, dose 20-80 µM. Format: functional, cell-based.
Data set [23] deals with AHH-1. Description: Antiradiation activity in human AHH-1 cells assessed as increase in cell viability at 2.5 micromol/L pre-treated with compound for 24 hrs followed by irradiation at 4 Gy measured after 24 hrs by CCK-8 assay. Format: functional, cell-based. The note with it: dose 2.5 µmol/L, time 48.0 hrs.
Data set [24] relates to Mus musculus. The experiment in a line: Radioprotective activity in male C57BL/6J mouse assessed as time required to increase in neutrophil count at 250 mg/kg, ip pre-treated with compound for 24.25 hrs followed by irradiation at 6.5 Gy and measured on 30 day post irradiation. Format: functional. The note with it: time 744.25 hrs.
In data set [25] the test system is Mus musculus. Description: Radioprotective activity in male C57BL/6J mouse assessed as increase in crypts villus length in mouse jejunum at 250 mg/kg, ip pre-treated with compound for 24.25 hrs followed by irradiation at 13 Gy and measured on 3.5 day post irradiation. The data set is classed as functional, organism-based. The note with it: time 108.25 hrs.
For data set [26], the system named is Mus musculus. Description: Radioprotective activity in male C57BL/6J mouse assessed as increase in body weight at 250 mg/kg, ip pre-treated with compound for 24.25 hrs followed by irradiation at 8.5 Gy and measured on day 18 post irradiation. Format: functional, organism-based. The note with it: time 456.25 hrs.
Data set [27] has as its system Mus musculus. Description: Radioprotective activity in male C57BL/6J mouse assessed as time required to increase in RBC count at 250 mg/kg, ip pre-treated with compound for 24.25 hrs followed by irradiation at 6.5 Gy and measured on 30 day post irradiation. The data set is classed as functional. The note with it: time 744.25 hrs.
For data set [28], the system named is HUVEC. The experiment in a line: Antiradiation activity in human HUVEC assessed as cell viability at 5 to 20 micromol/L pre-treated with compound for 24 hrs followed by irradiation at 8 Gy measured after 96 hrs by CCK-8 assay. The data set is classed as functional, cell-based. The note with it: dose 5-20 µmol/L, time 120.0 hrs.
Data set [29] relates to HUVEC. Description: Upregulation of MyD88 expression in HUVEC incubated for 24 hrs in presence of irradiation by Co-immunoprecipitation analysis. The data set is classed as functional, cell-based. The note with it: Homo sapiens.
The subject of data set [30] is Mus musculus. The experiment in a line: Radioprotective activity in male C57BL/6J mouse assessed as time required to increase in platelets at 250 mg/kg, ip pre-treated with compound for 24.25 hrs followed by irradiation at 6.5 Gy and measured on 30 day post irradiation. The note with it: time 744.25 hrs. The data set is classed as functional.
Data set [31] concerns Mus musculus. Description: Radioprotective activity in male C57BL/6J mouse assessed as increase in body weight at 250 mg/kg, ip pre-treated with compound for 24.25 hrs followed by irradiation at 8.5 Gy and measured on day 1 post irradiation. Format: functional, organism-based. The note with it: time 48.25 hrs.
Data set [32] relates to AHH-1. The experiment in a line: Antiradiation activity in human AHH-1 cells assessed as increase in cell viability at 2.5 micromol/L pre-treated with compound for 24 hrs followed by irradiation at 6 Gy measured after 24 hrs by CCK-8 assay. Format: functional, cell-based. The note with it: dose 2.5 µmol/L, time 48.0 hrs.
Data set [33] concerns the target T1, Toll-like receptor 2. The experiment in a line: Binding affinity to TLR2 (unknown origin) assessed as dissociation constant by SPR analysis.
In data set [34] the test system is AHH-1. The experiment in a line: Induction of DNA damage repair activity in 6 Gy radiation-induced human AHH-1 cells assessed as downregulation of Bax level pre-treated with compound for 24 hrs followed by irradiation by Co-immunoprecipitation analysis. The data set is classed as functional, cell-based.

The source made the active and inactive calls. The rule behind the calls is not given here.

`O=C([O-])c1ccc(/C=C/S(=O)(=O)Cc2ccc(Cl)cc2)cc1.[Na+]` [RECILISIB SODIUM]: the outcome in the data set with Mus musculus [1], in the data set with AHH-1 [4], with Mus musculus [8], with AHH-1 [11] and with AHH-1 [12] was Active. In addition, the IC50 in data set [2] was over 60 µM; in the data set on AHH-1 [3], 39.6 µM. Besides, the Activity was found to be 66.6% with AHH-1 [5]; 8.65% in the data set with AHH-1 [6]; 5.5% with AHH-1 [7]; 20% with Mus musculus [9]; 19.2% in the data set on AHH-1 [10].

With `N#Cc1ccc(CS(=O)(=O)c2cnc3ccccc3n2)cc1`, the Activity is 100% in the data set with Mus musculus [13]; “Dose-dependent-effect” at Toll-like receptor 2 [19]; 72% in the data set on AHH-1 [5]; 6.07% in the data set with AHH-1 [6]; 8.81% in the data set on AHH-1 [7]; “Active; Compound Showed Significant Regaining Effect” in the data set on Mus musculus [26]. Also, the Activity in the data set with AHH-1 [10] turned out to be 13.1%. In addition, the outcome in the data set on Mus musculus [1], in the data set on AHH-1 [14], in the data set with AHH-1 [16], with HUVEC [17], in the data set with Mus musculus [18] and in the data set on HUVEC [20] was Active. The result in the data set on AHH-1 [21], in the data set on AHH-1 [4], with HUVEC [22], in the data set on AHH-1 [23], in the data set on Mus musculus [25] and in the data set on HUVEC [28] was Active. Also, the outcome in the data set on HUVEC [29], in the data set with AHH-1 [11], in the data set with AHH-1 [12], with AHH-1 [32] and in the data set on AHH-1 [34] was Active. Besides, the Time in the data set with Mus musculus [15] is 10 days; with Mus musculus [24], 14 days; with Mus musculus [27], 14 days; in the data set on Mus musculus [30], 14 days. For the same compound, the IC50 (in data set [2]; with AHH-1 [3]) was over 60 µM throughout. The result in the data set on Mus musculus [31] was inactive. Moreover, at Toll-like receptor 2 [33], the Kd turned out to be 3.93 µM.
